“Also recorded” adds a separate entry of the source. Like-named read-outs stand apart in the source and are kept apart here.
Key:
[1] = tested on: nicotine-induced antinociception; assay: Blockade of nicotine-induced antinociception, tail-flick test; assay type: in vivo, mice; conditions: for AD50 Tail-Flick: blocking antinociception of nicotine 2.5 mg/kg, systemic administration
Experimental: Anitinociception. The tail-flick method of D'Amour and Smith (1941) as modified by Dewey et al. (1970) was used. A control response (2-4 s) was determined for each animal before treatment, and a test latency was determined after drug administration. To minimize tissue damage, a maximum latency of 10 s was imposed. Antinociceptive response was calculated as percent maximum possible effect (% MPE), where % MPE=[((test-control)/(10-control))×100], Groups of 8 to 12 animals were used for each dose and for each treatment. Mice were tested 5 min after nicotine administration for the dose-response evaluation. Antagonism studies were carried out by pretreating the mice s.c. with either saline or various drugs at different times before nicotine. The animals were tested 5 min after administration of nicotine.
(§1) Data were analyzed statistically by an analysis of variance followed by the Fisher's P least-significant difference multiple comparison test. The null hypothesis was rejected at the […].

Dopamine transporter = target: T1, Dopamine transporter (Rattus norvegicus, UniProt P23977)
T1 construct: from tissue; host or cells: brain

Serotonin transporter = target: T2, Serotonin transporter (Rattus norvegicus, UniProt P31652)
T2 construct: from tissue; host or cells: brain

[2] = tested on: nicotine-induced hypothermia; assay: Blockade of nicotine-induced hypothermia (body temperature); assay type: in vivo, mice; conditions: for AD50 Hypothermia: blocking nicotine-induced hypothermia, systemic administration
Experimental: Body Temperature. Rectal temperature was measured by a thermistor probe (inserted 24 mm) and digital thermometer (Yellow Springs Instrument Co., Yellow Springs, Ohio). Readings were taken just before and at 30 min after the s.c. injection of nicotine. For antagonism studies, mice were pretreated with either saline or various drugs 10 min before nicotine. The difference in rectal temperature before and after treatment was calculated for each mouse. The ambient temperature of the laboratory varied from 21 to 24° C. from day to day.
as §1

[3] = target: T3, Norepinephrine transporter (Rattus norvegicus, UniProt Q63380)
T3 construct: from tissue; host or cells: brain

[4] = tested on: cocaine-induced hyperactivity; assay: Locomotor activity, cocaine-induced hyperactivity; assay type: in vivo, mice; conditions: doses higher than 1 mg/kg
Experimental: Locomotor Activity. […] Interruptions of the photocell beams (two banks of eight cells each) were then recorded for the next 30 min. Data were expressed as number of photocell interruptions.

[5] = brain; read-out: Dopamine [3H]WIN 35,428 IC50; cited from earlier work
[6] = brain; read-out: Serotonin [3H]Paroxetine IC50; cited from earlier work
[7] = brain; read-out: Norepinephrine [3H]Nisoxetime IC50; cited from earlier work
[8] = read-out: Dopamine [3H]WIN 35,428 IC50; brain; cited from earlier work
[9] = read-out: Norepinephrine [3H]Nisoxetime IC50; brain; cited from earlier work

T3 sequence (Q63380 1-617): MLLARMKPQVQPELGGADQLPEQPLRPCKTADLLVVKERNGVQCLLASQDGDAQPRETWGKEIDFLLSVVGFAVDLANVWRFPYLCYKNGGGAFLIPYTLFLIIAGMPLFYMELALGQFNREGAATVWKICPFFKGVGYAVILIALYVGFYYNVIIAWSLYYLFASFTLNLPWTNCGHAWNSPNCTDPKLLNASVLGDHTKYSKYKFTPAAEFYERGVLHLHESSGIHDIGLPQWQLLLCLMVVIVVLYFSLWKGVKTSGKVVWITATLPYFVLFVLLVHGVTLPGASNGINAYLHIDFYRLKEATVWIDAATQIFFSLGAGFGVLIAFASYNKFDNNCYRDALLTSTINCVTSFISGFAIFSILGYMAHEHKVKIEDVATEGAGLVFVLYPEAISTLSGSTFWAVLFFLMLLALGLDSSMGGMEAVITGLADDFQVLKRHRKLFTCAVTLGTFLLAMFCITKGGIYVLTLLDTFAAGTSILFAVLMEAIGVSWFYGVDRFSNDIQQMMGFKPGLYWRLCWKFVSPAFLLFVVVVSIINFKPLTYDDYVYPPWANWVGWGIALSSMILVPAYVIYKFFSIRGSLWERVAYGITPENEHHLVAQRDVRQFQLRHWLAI
T1 sequence (P23977 whole entry): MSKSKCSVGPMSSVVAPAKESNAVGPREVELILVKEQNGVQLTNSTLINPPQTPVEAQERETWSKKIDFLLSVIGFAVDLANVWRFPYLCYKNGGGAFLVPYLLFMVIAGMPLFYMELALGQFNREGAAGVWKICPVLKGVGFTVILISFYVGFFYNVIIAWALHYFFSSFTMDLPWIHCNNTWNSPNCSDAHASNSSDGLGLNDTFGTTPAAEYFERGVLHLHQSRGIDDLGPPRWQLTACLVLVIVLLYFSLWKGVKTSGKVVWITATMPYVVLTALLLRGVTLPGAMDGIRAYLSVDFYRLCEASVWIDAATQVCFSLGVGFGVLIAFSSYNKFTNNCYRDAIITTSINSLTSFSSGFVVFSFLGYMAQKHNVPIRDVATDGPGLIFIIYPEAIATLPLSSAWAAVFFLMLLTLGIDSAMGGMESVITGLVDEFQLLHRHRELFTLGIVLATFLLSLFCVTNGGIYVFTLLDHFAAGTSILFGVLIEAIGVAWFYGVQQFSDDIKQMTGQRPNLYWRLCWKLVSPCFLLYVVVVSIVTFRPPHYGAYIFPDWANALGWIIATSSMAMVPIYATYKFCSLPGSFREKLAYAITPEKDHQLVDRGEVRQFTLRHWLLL
T2 sequence (P31652 whole entry): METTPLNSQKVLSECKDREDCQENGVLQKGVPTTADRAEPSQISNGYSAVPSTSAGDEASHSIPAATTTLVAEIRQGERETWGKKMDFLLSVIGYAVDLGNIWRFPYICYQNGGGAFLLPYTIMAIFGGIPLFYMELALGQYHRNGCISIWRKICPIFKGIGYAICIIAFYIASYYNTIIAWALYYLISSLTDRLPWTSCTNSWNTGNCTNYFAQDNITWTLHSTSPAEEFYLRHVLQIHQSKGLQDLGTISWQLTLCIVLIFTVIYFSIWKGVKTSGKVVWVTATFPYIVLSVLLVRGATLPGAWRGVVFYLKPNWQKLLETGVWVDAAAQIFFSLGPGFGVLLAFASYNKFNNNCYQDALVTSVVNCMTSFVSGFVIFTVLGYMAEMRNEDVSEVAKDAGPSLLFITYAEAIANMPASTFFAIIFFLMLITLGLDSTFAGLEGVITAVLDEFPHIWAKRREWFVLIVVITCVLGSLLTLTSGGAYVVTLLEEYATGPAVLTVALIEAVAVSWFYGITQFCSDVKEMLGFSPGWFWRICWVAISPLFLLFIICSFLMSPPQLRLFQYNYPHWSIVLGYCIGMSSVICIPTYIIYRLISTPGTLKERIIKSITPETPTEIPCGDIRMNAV

Structure (SMILES): COC(=O)[C@H]1[C@@H](c2ccc(Br)cc2)C[C@H]2CC[C@@H]1N2C [RTI-51]
- AD50 Tail-Flick ([1]; mice): 1.0 μmol/hg
- IC50 (Dopamine transporter; [5]): 1.69 nM
- IC50 (Serotonin transporter; [6]): 10.6 nM

Structure (SMILES): COC(=O)[C@H]1C(c2ccc(I)cc2)C[C@@H]2CC[C@H]1N2C (stereo partly drawn) [RTI-55]
- AD50 Tail-Flick ([1]; mice): 0.9 μmol/hg
- AD50 Hypothermia ([2]; mice): 1.2 μmol/hg
- Blockade of nicotine-induced hypothermia (in words) ([2]; mice): significantly blocked
- IC50 (Dopamine transporter; [5]): 1.26 nM
- IC50 (Serotonin transporter; [6]): 4.2 nM
- IC50 [3, 7]: 63 nM

Structure (SMILES): CN1[C@H]2CC[C@@H]1[C@@H](C(=O)O)[C@@H](c1ccc(Cl)cc1)C2 [RTI-70]
- Tail-flick, % blockade @ dose ([1]; @ 90 μmol/hg): 0% @ 90
- Relative potency in blocking nicotine's antinociceptive effect (in words, comparator in the value) ([1]; tail-flick, mice): much less potent than cocaine
- Hypothermia, % blockade @ dose ([2]; @ 90 μmol/hg): 40% @ 90
- IC50 (Dopamine transporter; [5]): 2070 nM
- IC50 (Serotonin transporter; [6]): 59500 nM
- IC50 [3, 7]: > 200000 nM

Structure (SMILES): COC(=O)[C@H]1[C@@H](c2ccc(Cl)cc2)C[C@@H]2CC[C@H]1N2 [RTI-110]
- AD50 Tail-Flick ([1]; mice): 1.0 μmol/hg
- Fold more potent than cocaine in blocking nicotine's antinociceptive effect ([1]; tail-flick, mice): 3 fold
- IC50 (Dopamine transporter; [5]): 0.62 nM
- IC50 (Serotonin transporter; [6]): 4.1 nM
- IC50 [3, 7]: 5.45 nM

Structure (SMILES): COC(=O)[C@H]1[C@@H](c2ccc(Cl)c(Cl)c2)C[C@@H]2CC[C@H]1N2C [RTI-111]
- AD50 Tail-Flick ([1]; mice): 1.3 μmol/hg
- Fold more potent than cocaine in blocking nicotine's antinociceptive effect ([1]; tail-flick, mice): ~2.5 fold
- IC50 (Dopamine transporter; [5]): 0.79 nM
- IC50 (Serotonin transporter; [6]): 3.1 nM
- IC50 [3, 7]: 17.9 nM

Structure (SMILES): COC(=O)[C@H]1[C@@H](c2ccc(Cl)c(C)c2)C[C@@H]2CC[C@H]1N2C [RTI-112]
- AD50 Tail-Flick ([1]; mice): 3.5 μmol/hg
- Relative potency in blocking nicotine's antinociceptive effect (in words, comparator in the value) ([1]; tail-flick, mice): approximately the same activity as cocaine; also recorded: approximately twice as potent as WIN 35,065-2
- AD50 Hypothermia ([2]; mice): 1.5 μmol/hg
- Blockade of nicotine-induced hypothermia (in words) ([2]; mice): significantly blocked
- IC50 (Dopamine transporter; [5]): 0.8 nM
- IC50 (Serotonin transporter; [6]): 10.5 nM
- IC50 [3, 7]: 36.2 nM

Structure (SMILES): CN1[C@H]2CC[C@@H]1[C@@H](C(=O)Oc1ccccc1)[C@@H](c1ccc(Cl)cc1)C2 [RTI-113]
- AD50 Tail-Flick ([1]; mice): 5.6 μmol/hg
- IC50 (Dopamine transporter; [5]): 1.98 nM
- IC50 (Serotonin transporter; [6]): 2340 nM
- IC50 [3, 7]: 2930 nM

Structure (SMILES): CC(C)OC(=O)[C@@H]1C2CC[C@H](C[C@@H]1c1ccc(Cl)cc1)N2C [RTI-114]
- AD50 Tail-Flick ([1]; mice): 5.3 μmol/hg
- AD50 Hypothermia ([2]; mice): 9 μmol/hg
- IC50 (Dopamine transporter; [5]): 1.4 nM
- IC50 (Serotonin transporter; [6]): 1400 nM
- IC50 [3, 7]: 778 nM

Structure (SMILES): Cc1ccc([C@H]2C[C@@H]3CC[C@H]([C@H]2C(=O)Oc2ccccc2)N3C)cc1 [RTI-120]
- AD50 Tail-Flick ([1]; mice): 4.0 μmol/hg
- Relative potency in blocking nicotine's antinociceptive effect (in words, comparator in the value) ([1]; tail-flick, mice): only one-half as potent as RTI-32
- IC50 (Dopamine transporter; [5]): 3.26 nM
- IC50 (Serotonin transporter; [6]): 24500 nM
- IC50 [3, 7]: 5830 nM

Structure (SMILES): CC(C)OC(=O)C1C(c2ccc(I)cc2)CC2CCC1N2C (stereo not drawn) [RTI-121]
- AD50 Tail-Flick ([1]; mice): 0.3 μmol/hg
- Fold more potent than cocaine in blocking nicotine's antinociceptive effect ([1]; tail-flick, mice): 10 fold
- AD50 Hypothermia ([2]; mice): 49 μmol/hg
- Blockade of nicotine-induced hypothermia (in words) ([2]; mice): significantly blocked
- Fold less potent in blocking nicotine hypothermia than antinociception ([2]; mice): > 100 fold
- IC50 (Dopamine transporter; [8]): 0.4 nM
- IC50 [3, 9]: 285 nM

Structure (SMILES): CN1C2CCC1C(C(=O)N1CCCC1)C(c1ccc(Cl)cc1)C2 (stereo not drawn) [RTI-147]
- AD50 Tail-Flick ([1]; mice): 5.7 μmol/hg
- Relative potency in blocking nicotine's antinociceptive effect (in words, comparator in the value) ([1]; tail-flick, mice): about one-half as potent as cocaine
- IC50 (Dopamine transporter; [8]): 1.38 nM
- IC50 (Serotonin transporter; [6]): 12400 nM
- IC50 [3, 9]: 3950 nM

Structure (SMILES): CN1C2CCC1C(C(=O)N1CCCC1)C(c1ccc(I)cc1)C2 (stereo not drawn) [RTI-229]
- AD50 Tail-Flick ([1]; mice): 3.6 μmol/hg
- Relative potency in blocking nicotine's antinociceptive effect (in words, comparator in the value) ([1]; tail-flick, mice): about the same potency as cocaine
- IC50 (Dopamine transporter; [8]): 0.37 nM
- IC50 (Serotonin transporter; read-out: Serotonin [3H]Paroxetine IC50; brain; cited from earlier work): 1790 nM
- IC50 [3, 9]: 990 nM

Structure (SMILES): COC(=O)[C@H]1[C@@H](c2ccccc2)C[C@@H]2CC[C@H]1N2C [WIN 35,065-2, reference compound]
- AD50 Tail-Flick ([1]; mice): 8.0 μmol/hg
- Times less potent than cocaine in blocking nicotine's antinociceptive effect ([1]; tail-flick, mice): 2.5 times
- AD50 Hypothermia ([2]; mice): 6.7 μmol/hg
- Blockade of nicotine-induced hypothermia (in words) ([2]; mice): significantly blocked
- IC50 (Dopamine transporter; [5]): 23 nM
- IC50 [3, 7]: 920 nM

Structure (SMILES): COC(=O)[C@H]1[C@@H](OC(=O)c2ccccc2)C[C@@H]2CC[C@H]1[N+]2(C)C.[I-] [cocaine methiodide, reference compound]
- Blockade of nicotine-induced antinociception (in words) ([1]; tail-flick, mice): failed to significantly block
- Blockade of nicotine-induced antinociception (in words) ([1]; tail-flick, mice, listed as cocaine-methiodide): Lack of blockade

Structure (SMILES): CNC1(C)C2CCC(C2)C1(C)C (stereo not drawn) [mecamylamine]
- Effect of higher doses on mouse spontaneous activity [4]: significantly decreased mouse spontaneous activity
